The record followed here is patent US9822110B2, “Sulfonamide derivative and pharmaceutical use thereof” (EA Pharma Co., Ltd., priority 2013, dated 2017).

The target in the assay is T1, MAdCAM-1/α4β7 integrin (Homo sapiens, UniProt P13612+P26010).
T1 construct: a human B-cell line known to express α4β7 integrin; endogenous in cells; host or cells: RPMI-8866 (human B-cell line)
T1 sequence (P13612 34-1032): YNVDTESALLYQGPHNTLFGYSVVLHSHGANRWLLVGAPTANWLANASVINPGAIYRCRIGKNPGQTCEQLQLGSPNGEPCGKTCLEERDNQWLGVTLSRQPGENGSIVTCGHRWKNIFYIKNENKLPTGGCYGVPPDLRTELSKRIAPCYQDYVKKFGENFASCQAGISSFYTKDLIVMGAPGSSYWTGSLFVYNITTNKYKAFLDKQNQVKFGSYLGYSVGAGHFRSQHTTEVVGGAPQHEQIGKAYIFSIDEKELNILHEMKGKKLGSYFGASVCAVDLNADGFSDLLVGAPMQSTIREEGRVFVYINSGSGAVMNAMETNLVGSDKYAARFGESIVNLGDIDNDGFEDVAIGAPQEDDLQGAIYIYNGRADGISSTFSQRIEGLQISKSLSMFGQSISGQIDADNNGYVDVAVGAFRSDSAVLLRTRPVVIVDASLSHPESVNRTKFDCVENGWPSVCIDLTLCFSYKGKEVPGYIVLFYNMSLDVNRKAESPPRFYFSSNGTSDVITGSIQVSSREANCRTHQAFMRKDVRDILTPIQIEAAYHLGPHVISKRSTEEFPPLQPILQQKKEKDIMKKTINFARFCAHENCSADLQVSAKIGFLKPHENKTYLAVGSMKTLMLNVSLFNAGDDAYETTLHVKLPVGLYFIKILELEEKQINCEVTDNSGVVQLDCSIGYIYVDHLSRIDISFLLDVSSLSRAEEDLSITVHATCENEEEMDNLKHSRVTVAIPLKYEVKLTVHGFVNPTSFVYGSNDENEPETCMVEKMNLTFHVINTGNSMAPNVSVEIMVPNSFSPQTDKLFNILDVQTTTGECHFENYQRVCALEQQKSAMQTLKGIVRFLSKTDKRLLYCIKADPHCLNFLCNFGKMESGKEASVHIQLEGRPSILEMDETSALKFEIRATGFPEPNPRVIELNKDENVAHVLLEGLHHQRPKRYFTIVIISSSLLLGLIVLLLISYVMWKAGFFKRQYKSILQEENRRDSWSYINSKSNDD
T1 sequence (P26010 20-798): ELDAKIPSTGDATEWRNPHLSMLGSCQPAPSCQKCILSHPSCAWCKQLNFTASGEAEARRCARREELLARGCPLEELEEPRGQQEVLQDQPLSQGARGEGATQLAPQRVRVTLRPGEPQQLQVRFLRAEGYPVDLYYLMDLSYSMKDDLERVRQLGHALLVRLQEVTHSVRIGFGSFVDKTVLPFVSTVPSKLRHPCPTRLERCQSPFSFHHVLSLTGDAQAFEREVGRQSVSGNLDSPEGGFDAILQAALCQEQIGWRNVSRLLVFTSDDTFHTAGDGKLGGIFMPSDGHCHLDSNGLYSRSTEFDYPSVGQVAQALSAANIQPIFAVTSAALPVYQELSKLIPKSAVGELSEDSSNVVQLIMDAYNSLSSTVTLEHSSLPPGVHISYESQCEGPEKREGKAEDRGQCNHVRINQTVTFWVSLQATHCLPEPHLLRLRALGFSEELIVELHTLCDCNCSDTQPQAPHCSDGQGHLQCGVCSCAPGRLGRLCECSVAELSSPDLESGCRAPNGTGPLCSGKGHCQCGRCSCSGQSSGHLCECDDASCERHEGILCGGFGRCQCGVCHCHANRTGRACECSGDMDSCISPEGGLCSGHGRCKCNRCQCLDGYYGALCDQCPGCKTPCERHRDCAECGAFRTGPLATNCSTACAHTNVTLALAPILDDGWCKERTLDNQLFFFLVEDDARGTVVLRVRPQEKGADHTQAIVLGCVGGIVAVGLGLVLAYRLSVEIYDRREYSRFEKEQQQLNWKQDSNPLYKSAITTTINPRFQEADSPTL
Put plainly: Evaluation test (1) for MAdCAM-1/α4β7 integrin binding inhibitory activity in the presence of serum (RPMI-8866 cell binding to MAdCAM-1/Fc). In kind it is cell-based. Particulars: RPMI-8866 cells, recombinant mouse MAdCAM-1/Fc, human serum at final concentration of 50%; read-out: α4β7 Serum Activity rank when α4β7 serum was added. Here is the method: The selectivity was determined by dividing the IC50 value in the evaluation test for VCAM-1/α4β1 integrin binding inhibitory activity by the IC50 value in the evaluation test for MAdCAM-1/α4β7 integrin binding inhibitory activity. • (3) Evaluation Test (1) for MAdCAM-1/α4β7 Integrin Binding Inhibitory Activity in the Presence of Serum
The ability of test substances to inhibit the binding of RPMI-8866 cell line, a human B-cell line known to express α4β7 integrin, to MAdCAM-1 was examined.
A 96-well microtiter plate was coated overnight at 4° C. with a recombinant mouse MAdCAM-1/Fc (R&D systems) solution diluted with the buffer A (carbonate buffer, pH 9.6). After washing once with PBS, 150 μL/well of Block Ace (manufactured by Snow Brand Milk Products Co., Ltd.) was added, and it was incubated at room temperature for 2 hours. After removal, it was washed once with PBS.
100 μL of each of test substances and RPMI-8866 cells diluted with a binding buffer solution (DMEM containing 40 mM HEPES, 0.2% BSA, and 4 mM MnCl2) to various concentrations was added to the plate coated with MAdCAM-1/Fc, so that human serum was contained at a final concentration of 50%, and it was incubated at 30° C. for 15 minutes to 60 minutes. After the cells were bound to the wells, unbound cells were removed by washing with PBS. 50 μL/well of the buffer solution C (PBS containing 1.5% Triton X-100) was added to the plate to dissolve the bound RPMI-8866 cells. 30 μL of substrate buffer (Promega, CytoTox 96 Non-Radioactive Cytotoxicity Assay) was added to 30 μL of a cell lysate to allow a reaction for 30 minutes at room temperature in a dark place. 30 μL of stop solution (Promega, CytoTox 96 Non-Radioactive Cytotoxicity Assay) was added thereto to determine the absorbance at 490 nm using a plate reader. The absorbance was obtained herein by detecting the activity of lactate dehydrogenase (LDH) eluted in a supernatant of each well, that is, the absorbance is proportional to the number of RPMI-8866 cells remaining on the plate by being bound to MAdCAM-1. The test was duplicated, and the cell binding rate at various concentrations with the absorbance of the well containing no test substance being taken as 100% was determined, to calculate the concentration IC50 at which 50% of binding was inhibited.
Turning to `COc1cc2c(=O)n(-c3ccc(C[C@H](NC(=O)c4cc(F)c(NS(=O)(=O)c5ccc(-c6cnc(COC(C)C)nc6)cc5)cc4F)C(=O)O)nc3)c(=O)n(C)c2cn1` [Example 41, (2S)-2-[[2,5-Difluoro-4-[[4-[2-(isopropoxymethyl)pyrimidin-5-yl]phenyl]sulfonylamino]benzoyl]amino]-3-[5-(6-methoxy-1-methyl-2,4-dioxo-pyrido[3,4-d]pyrimidin-3-yl)-2-pyridyl]propanoic acid], the IC50 is > 200 nM. The value for `CC(C)OCc1ncc(-c2ccc(S(=O)(=O)Nc3cc(F)c(C(=O)N[C@@H](Cc4ccc(-n5c(=O)ccn(C)c5=O)cc4)C(=O)O)cc3F)cc2)cn1` [Example 42, (2S)-2-[[2,5-Difluoro-4-[[4-[2-(isopropoxymethyl)pyrimidin-5-yl]phenyl]sulfonylamino]benzoyl]amino]-3-[4-(3-methyl-2,6-dioxo-pyrimidin-1-yl)phenyl]propanoic acid] was 50 to 200 nM; that for `CC(C)OCc1ncc(-c2ccc(S(=O)(=O)Nc3cc(F)c(C(=O)N[C@@H](Cc4ccc(-n5c(=O)c6cncnc6n(C)c5=O)cn4)C(=O)O)cc3F)cc2)cn1` [Example 43, (2S)-2-[[2,5-Difluoro-4-[[4-[2-(isopropoxymethyl)pyrimidin-5-yl]phenyl]sulfonylamino]benzoyl]amino]-3-[5-(1-methyl-2,4-dioxo-pyrimido[4,5-d]pyrimidin-3-yl)-2-pyridyl]propanoic acid] was > 200 nM.

Consider `CC(C)OCc1ncc(-c2ccc(S(=O)(=O)Nc3cc(F)c(C(=O)N[C@@H](Cc4ccc(-n5c(=O)cc(C(F)(F)F)n(C)c5=O)cc4)C(=O)O)cc3F)cc2)cn1` [Example 44, (2S)-2-[[2,5-Difluoro-4-[[4-[2-(isopropoxymethyl)pyrimidin-5-yl]phenyl]sulfonylamino]benzoyl]amino]-3-[4-[3-methyl-2,6-dioxo-4-(trifluoromethyl)pyrimidin-1-yl]phenyl]propanoic acid], for which the IC50 was 50 to 200 nM.

Turning to `CCc1ncc(-c2ccc(S(=O)(=O)Nc3c(F)c(F)c(C(=O)N[C@@H](Cc4ccc(-c5c(C)n(C)c(=O)n(C)c5=O)cc4)C(=O)O)c(F)c3F)cc2)cn1` [Example 45, (2S)-2-[[4-[[4-(2-Ethylpyrimidin-5-yl)phenyl]sulfonylamino]-2,3,5,6-tetrafluoro-benzoyl]amino]-3-[4-(1,3,4-trimethyl-2,6-dioxo-pyrimidin-5-yl)phenyl]propanoic acid], the IC50 was 10 to 50 nM. Turning to `Cc1cc(-c2ccccn2)ccc1S(=O)(=O)Nc1ccc(C(=O)N[C@@H](Cc2ccc(-c3c(C)n(C)c(=O)n(C)c3=O)cc2)C(=O)O)c(F)c1` [Example 46, (2S)-2-[[2-Fluoro-4-[[2-methyl-4-(2-pyridyl)phenyl]sulfonylamino]benzoyl]amino]-3-[4-(1,3,4-trimethyl-2,6-dioxo-pyrimidin-5-yl)phenyl]propanoic acid], the IC50 was > 200 nM. For `Cc1c(-c2ccc(C[C@H](NC(=O)c3c(F)cc(NS(=O)(=O)c4ccc(C(=O)NC5CC5)cc4)cc3F)C(=O)O)cc2)c(=O)n(C)c(=O)n1C` [Example 47], the IC50 was in the range of 10 to 50 nM. The value for `COCc1ncc(-c2ccc(S(=O)(=O)Nc3cc(F)c(C(=O)N[C@@H](Cc4ccc(-n5c(=O)c6ccncc6n(C)c5=O)nc4)C(=O)O)cc3F)cc2)cn1` [Example 51, (2S)-2-[[2,5-Difluoro-4-[[4-[2-(methoxymethyl)pyrimidin-5-yl]phenyl]sulfonylamino]benzoyl]amino]-3-[6-(1-methyl-2,4-dioxo-pyrido[3,4-d]pyrimidin-3-yl)-3-pyridyl]propanoic acid] was 10 to 50 nM. Take `CC(C)OCc1ncc(-c2ccc(S(=O)(=O)Nc3cc(F)c(C(=O)N[C@@H](Cc4ccc(-n5c(=O)c6ccncc6n(C)c5=O)cc4)C(=O)O)cc3F)cc2)cn1` [Example 85]: the IC50 was 10 to 50 nM.
